# Like-named read-outs stand apart in the source and are kept apart here.
# T1: CCK-binding sites on rat pancreatic plasma membranes (Rattus norvegicus, UniProt P30551)
# T1 sequence (P30551 1-444): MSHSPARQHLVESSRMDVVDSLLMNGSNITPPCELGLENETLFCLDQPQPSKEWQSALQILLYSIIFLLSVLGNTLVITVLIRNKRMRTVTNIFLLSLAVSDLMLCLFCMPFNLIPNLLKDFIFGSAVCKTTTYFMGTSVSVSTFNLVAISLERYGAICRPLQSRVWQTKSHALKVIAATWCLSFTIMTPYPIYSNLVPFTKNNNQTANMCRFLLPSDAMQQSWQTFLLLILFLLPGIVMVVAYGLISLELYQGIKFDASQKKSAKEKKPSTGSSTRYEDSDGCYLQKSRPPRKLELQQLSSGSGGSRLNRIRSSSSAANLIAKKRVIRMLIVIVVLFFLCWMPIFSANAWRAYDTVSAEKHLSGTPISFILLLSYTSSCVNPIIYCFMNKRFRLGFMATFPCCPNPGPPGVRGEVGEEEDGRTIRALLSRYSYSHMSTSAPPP
# T2: CCK-binding site (Mr 85,000 protein) of rat pancreatic plasma membranes (Rattus norvegicus, UniProt P30551)
# T2 sequence (P30551 1-444): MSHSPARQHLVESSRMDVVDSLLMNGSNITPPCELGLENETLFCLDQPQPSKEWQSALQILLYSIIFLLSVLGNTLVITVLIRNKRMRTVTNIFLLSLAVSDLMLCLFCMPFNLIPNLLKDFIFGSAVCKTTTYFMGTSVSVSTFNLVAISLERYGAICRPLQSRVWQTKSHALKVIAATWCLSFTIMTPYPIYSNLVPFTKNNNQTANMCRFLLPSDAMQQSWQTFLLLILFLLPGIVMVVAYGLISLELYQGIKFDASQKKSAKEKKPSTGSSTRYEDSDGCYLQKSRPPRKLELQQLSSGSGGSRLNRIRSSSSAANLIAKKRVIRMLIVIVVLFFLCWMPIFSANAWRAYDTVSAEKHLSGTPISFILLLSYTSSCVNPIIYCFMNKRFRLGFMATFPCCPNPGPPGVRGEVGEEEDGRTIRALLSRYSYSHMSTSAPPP
# Columns and labels:
# [1] = test system: rabbit anti-CCK IgG (antiserum No. L-48); assay: Affinity labeling of anti-CCK antibodies; assay type: binding; settings: 0.07 nM 125I-CCK-33, 24 h at 4C, 1 mM DSS; Fig. 1 lane a
# [2] = 125I-labeled Bolton-Hunter reagent; cited from earlier work
# [3] = test system: CCK-binding sites on rat pancreatic acinar cells; assay: Light microscopic autoradiography of pancreatic acini; assay type: cell-based; settings: ~0.1 nM 125I-CCK-33, 15 min at 37C; Fig. 2a; similar results at 2 min
# [4] = test system: CCK-binding sites on rat pancreatic acinar cells; assay type: cell-based
# [5] = target: T1, CCK-binding sites on rat pancreatic plasma membranes; assay: Competitive inhibition of 125I-CCK-33 binding to pancreatic plasma membranes
# [6] = target: T2, CCK-binding site (Mr 85,000 protein) of rat pancreatic plasma membranes; assay: Affinity labeling; settings: micromolar concentrations of competitor; unpublished results
# [7] = test system: CCK receptor in rat pancreatic acini; settings: rat pancreatic acinar cell; cited from earlier work
# [8] = test system: CCK receptors of mouse pancreatic acini; settings: electron microscopic autoradiography; cited from earlier work
# [9] = test system: CCK-binding sites of rat pancreatic plasma membranes; settings: ultraviolet irradiation cross-linking; cited from earlier work
# [10] = 0.1 nM 125I-CCK-33, 2 or 15 min, 37C, % of total grains
# [11] = 2 min, 37C, 0.1 nM 125I-CCK-33, mean ± SEM, 17 micrographs, Table I
# [12] = 15 min, 37C, 0.1 nM 125I-CCK-33, mean ± SEM, 18 micrographs, Table I
molecule,measurement,setting,value
"125I-CCK-33: CCK-33 acylated with 125I-labeled Bolton-Hunter reagent (KAPSGRVSMIKNLQSLDPSHRISDRDYMGWMDF; Cholecystokinin-33 125I-Bolton-Hunter labeled; UniProt P01356 70-102, looked up)",labeling of heavy and light chains of anti-CCK IgG,[1],labeling of the heavy and light chains of anti-CCK IgG was obtained
same,secretagogue activity after Bolton-Hunter acylation,[2],retention of secretagogue activity
same,distribution of autoradiographic grains (light microscopy),[3],primarily delineated the basal and lateral boundaries of the acinar cells
same,grains over cytoplasm (summary),[4]; [10],~ 30%
same,grains over embedding medium (summary),[4]; [10],5- 8%
same,grains over nucleus (summary),[4]; [10],1-2%
same,grains within 1 HD of the lateral and basal plasmalemma,[4]; [10],approximately 60%
same,Basal PM grain density,[4]; [11],2.57 0.08 grains/µm2
same,"Cytoplasm, % total grains",[4]; [11],34.0 ± 1.3 % total grains
same,Lateral PM grain density,[4]; [11],1.10 0.05 grains/µm2
same,"Lateral PM, % total grains",[4]; [11],12.1 ± 0.4 % total grains
same,distribution of grains at 4C,"[4]; 2 min or 15 min at 4C, data not shown, compared with 37C",Qualitatively similar results
same,relative grain density over cytoplasm or nucleus compared to embedding medium,"[4]; 15 min, 37C",no statistically significant increase
same,Apical PM grain density,[4]; [12],0.11 ± 0.02 grains/µm2
same,"Apical PM, % total grains",[4]; [12],0.1 % total grains
same,Basal PM grain density,[4]; [12],2.46 0.11 grains/µm2
same,"Basal PM, % total grains",[4]; [12],34.8 0.6 % total grains
same,"Cytoplasm, % total grains",[4]; [12],30.0 ± 0.8 % total grains
same,"Embedding medium, % total grains",[4]; [12],8.1 0.6 % total grains
same,Lateral PM grain density,[4]; [12],2.32 0.07 grains/µm2
same,"Lateral PM, % total grains",[4]; [12],25.5 ± 0.6 % total grains
same,specific binding sites on centroacinar or ductular cells,"[4]; autoradiography, 125I-CCK-33",no apparent specific
same,relative grain density over cytoplasm and nucleus (summary),"[4]; either time point, 37C",never exceeded unity
same,peptide released from binding sites during cross-linking and subsequent washing,[5],< 5%
secretin: peptide tested at micromolar concentration as specificity control,effect on labeling of membrane proteins by 125I-CCK-33,[6],unaffected
insulin: polypeptide hormone tested at micromolar concentration as specificity control,effect on labeling of membrane proteins by 125I-CCK-33,[6],unaffected
"cholecystokinin (peptide, UniProt P06307 21-115, looked up, Cholecystokinin) Cholecystokinin: QPVPPADPAGSGLQRAEEAPRRQLRVSQRTDGESRAHLGALLARYIQQARKAPSGRMSIVKNLQNLDPSHRISDRDYMGWMDFGRRSAEEYEYPS",high affinity binding sites per cell,[7],approximately 650 binding sites per cell
same,low affinity binding sites per cell,[7],"~100,000 binding sites per cell"
same,localization of CCK receptors,[8],localized to the basolateral plasmalemma of mouse pancreatic acini
same,Mr of specifically labeled polypeptide,[9],"76,000"
